Laboratory results as given in US10392404B2, “Compounds and compositions as kinase inhibitors” (NOVARTIS AG, priority 2014, dated 2019).

Tests used:
[1] = target: T1, C-RAF (Homo sapiens, UniProt P04049, Y340E/Y341E); assay: In vitro Raf activity determination (Alpha Screen, biotinylated kinase-dead MEK1 substrate), C-Raf; type: biochemical; conditions: c-Raf approximately 4 nM; ATP 1 μM; pre-incubation 60 minutes; reaction 1 hour at room temperature
T1 construct: His tag (implied by nickel chromatography) (cleaved yes); StrepII tag (cleaved yes); made in house; host or cells: Sf9 insect cells (baculovirus), CRAF and h14-3-3 zeta co-expressed; MEK1 substrate from E. coli
T1 sequence (P04049 whole entry Y340E/Y341E): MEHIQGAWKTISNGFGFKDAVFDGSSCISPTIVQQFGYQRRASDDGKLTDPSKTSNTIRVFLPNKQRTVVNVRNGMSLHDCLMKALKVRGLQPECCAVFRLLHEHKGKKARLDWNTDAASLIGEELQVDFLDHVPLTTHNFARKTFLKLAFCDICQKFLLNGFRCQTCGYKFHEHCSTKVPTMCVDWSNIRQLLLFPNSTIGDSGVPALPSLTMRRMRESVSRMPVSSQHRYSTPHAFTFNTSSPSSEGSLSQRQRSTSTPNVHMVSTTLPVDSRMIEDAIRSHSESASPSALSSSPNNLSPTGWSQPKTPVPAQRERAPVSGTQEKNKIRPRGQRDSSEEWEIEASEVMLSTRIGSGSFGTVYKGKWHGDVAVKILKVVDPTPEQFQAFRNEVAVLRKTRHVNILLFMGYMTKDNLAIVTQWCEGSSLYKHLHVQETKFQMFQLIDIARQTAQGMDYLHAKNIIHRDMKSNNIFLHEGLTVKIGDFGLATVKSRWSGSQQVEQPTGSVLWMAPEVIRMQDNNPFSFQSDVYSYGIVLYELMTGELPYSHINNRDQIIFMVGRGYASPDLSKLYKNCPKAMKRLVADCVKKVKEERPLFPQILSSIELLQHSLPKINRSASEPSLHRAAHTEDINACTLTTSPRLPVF
T1 sequence (P63104 whole entry partner): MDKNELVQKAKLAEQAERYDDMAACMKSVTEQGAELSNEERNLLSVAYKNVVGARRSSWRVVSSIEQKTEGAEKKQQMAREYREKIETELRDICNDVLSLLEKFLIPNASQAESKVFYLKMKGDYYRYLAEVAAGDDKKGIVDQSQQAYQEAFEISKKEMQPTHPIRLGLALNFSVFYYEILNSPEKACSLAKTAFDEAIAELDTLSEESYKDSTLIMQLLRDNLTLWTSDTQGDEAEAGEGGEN
Method in brief: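 Full-length C-Raf carrying Y340E/Y341E, co-expressed with 14-3-3ζ in Sf9 cells, at approximately 4 nM, with approximately 10 nM biotinylated kinase-dead MEK1 (K97R) and 1 μM ATP, pH 7.5. Compound preincubated 60 min, reaction 1 hour at room temperature. Phospho-MEK read by AlphaScreen; IC50 by non-linear regression.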

[2] = target: T2, b-Raf (V600E) (Homo sapiens, UniProt P15056, V600E); assay: In vitro Raf activity determination (Alpha Screen, biotinylated kinase-dead MEK1 substrate), B-Raf; type: biochemical; conditions: b-Raf (V600E) approximately 4 pM; ATP 10 μM; pre-incubation 60 minutes; reaction 3 hours at room temperature
T2 construct: made in house
T2 sequence (P15056 whole entry V600E): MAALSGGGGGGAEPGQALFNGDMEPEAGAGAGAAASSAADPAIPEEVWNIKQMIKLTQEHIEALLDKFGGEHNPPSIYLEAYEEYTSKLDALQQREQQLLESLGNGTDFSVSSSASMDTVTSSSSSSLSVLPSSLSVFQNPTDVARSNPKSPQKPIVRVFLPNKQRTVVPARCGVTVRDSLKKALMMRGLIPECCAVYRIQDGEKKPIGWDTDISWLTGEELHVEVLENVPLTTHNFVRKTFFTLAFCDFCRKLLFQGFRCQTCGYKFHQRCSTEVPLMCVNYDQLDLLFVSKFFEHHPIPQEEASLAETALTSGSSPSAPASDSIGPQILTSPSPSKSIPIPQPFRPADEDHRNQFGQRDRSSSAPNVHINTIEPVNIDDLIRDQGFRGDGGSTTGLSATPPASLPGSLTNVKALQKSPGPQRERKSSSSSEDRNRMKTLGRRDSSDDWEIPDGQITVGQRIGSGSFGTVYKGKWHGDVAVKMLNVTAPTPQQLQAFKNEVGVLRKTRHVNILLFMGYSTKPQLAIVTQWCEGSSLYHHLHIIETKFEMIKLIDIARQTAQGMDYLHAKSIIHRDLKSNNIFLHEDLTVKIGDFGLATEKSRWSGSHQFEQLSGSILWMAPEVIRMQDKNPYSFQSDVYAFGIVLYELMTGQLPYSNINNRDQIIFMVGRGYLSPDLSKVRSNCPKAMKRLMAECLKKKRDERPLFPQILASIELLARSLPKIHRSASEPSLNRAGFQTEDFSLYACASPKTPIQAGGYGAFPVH
Method in brief: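 Activated b-Raf(V600E) (~4 pM) pre-incubated 60 min with compound and biotinylated kinase-dead (K97R) MEK1 (~10 nM), then reacted 3 h at room temperature with 10 μM ATP in 50 mM Tris pH 7.5, 15 mM MgCl2, 0.01% BSA, 1 mM DTT. Phospho-MEK detected by AlphaScreen; IC50 by non-linear regression.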

SMILES	IC50 [1] [nM]	IC50 [2] [nM]
Cc1ccn(-c2ncc(-c3cc(NC(=O)c4ccnc(C(C)(C)C#N)c4)cnc3C)cc2C#N)n1 [Example 83, N-(5′-cyano-2-methyl-6′-(3-methyl-1H-pyrazol-1-yl)-[3,3′-bipyridin]-5-yl)-2-(2-cyanopropan-2-yl)isonicotinamide]	4.89	23.7
Cc1cn(-c2ncc(-c3cc(NC(=O)c4ccnc(C(C)(C)C#N)c4)cnc3C)cc2C#N)cn1 [Example 84, N-(5′-cyano-2-methyl-6′-(4-methyl-1H-imidazol-1-yl)-[3,3′-bipyridin]-5-yl)-2-(2-cyanopropan-2-yl)isonicotinamide]	5.1	25.1
Cc1ncc(NC(=O)c2cccc(C(F)(F)F)c2)cc1-c1cnc(N2CCS(=O)(=O)CC2)c(C#N)c1 [Example 85, N-(5′-cyano-6′-(1,1-dioxidothiomorpho-lino)-2-methyl-[3,3′-bipyridin]-5-yl)-3-(trifluoromethyl) benzamide]	0.227	1.33
Cc1ncc(NC(=O)c2ccnc(C(F)(F)F)c2)cc1-c1cnc(N2CCS(=O)(=O)CC2)c(C#N)c1 [Example 86, N-(5′-cyano-6′-(1,1-dioxidothiomorpho-lino)-2-methyl-[3,3′-bipyridin]-5-yl)-2-(trifluoromethyl) isonicotinamide]	0.438	2.98
Cc1ncc(NC(=O)c2ccnc(C(C)(C)C#N)c2)cc1-c1cnc(N2CCOC[C@@H]2C)c(C#N)c1 [Example 87, (S)-N-(5′-cyano-2-methyl-6′-(3-methylmorpholino)-[3,3′-bipyridin]-5-yl)-2-(2-cyanopropan-2-yl)isonicotinamide]	1.15	3.02
Cc1ncc(NC(=O)c2ccnc(C(C)(C)C#N)c2)cc1-c1cnc(N2C[C@H]3CC[C@@H](C2)O3)c(C#N)c1 [Example 88, N-(6′-((1R,5S)-8-oxa-3-azabicyclo[3,2,1]octan-3-yl)-5′-cyano-2-methyl-[3,3′-bipyridin]-5-yl)-2-(2-cyanopropan-2-yl)isonicotinamide]	0.612	2.04
Cc1ncc(NC(=O)c2ccnc(C(C)(C)C#N)c2)cc1-c1cnc(N2CCOC(C)(C)C2)c(C#N)c1 [Example 89, N-(5′-cyano-6′-(2,2-dimethylmorpholino)-2-methyl-[3,3′-bipyridin]-5-yl)-2-(2-cyanopropan-2-yl)isonicotinamide]	1.02	3.42
Cc1ncc(NC(=O)c2ccnc(C(C)(C)C#N)c2)cc1-c1cnc(N2C[C@H]3C[C@@H]2CO3)c(C#N)c1 [Example 90, N-(6′-((1R,4R)-2-oxa-5-azabicyclo[2.2.1]heptan-5-yl)-5′-cyano-2-methyl-[3,3′-bipyridin]-5-yl)-2-(2-cyanopropan-2-yl)isonicotinamide]	2.1	8.94
Cc1ncc(NC(=O)c2ccnc(C(C)(C)C#N)c2)cc1-c1cnc(N2[C@@H]3CC[C@H]2COC3)c(C#N)c1 [Example 91, N-(6′-((1R,5S)-3-oxa-8-azabicyclo[3.2.1]octan-8-yl)-5′-cyano-2-methyl-[3,3′-bipyridin]-5-yl)-2-(2-cyanopropan-2-yl)isonicotinamide]	1.01	3.62
COCCOc1ncc(-c2cc(NC(=O)c3ccnc(C(F)(F)F)c3)cnc2C)cc1C#N [Example 93, N-(5′-cyano-6′-(2-methoxyethoxy)-2-methyl-[3,3′-bipyridin]-5-yl)-2-(trifluoromethyl) isonicotinamide]	1.75	6.84
Cc1ncc(NC(=O)c2ccnc(C(C)(C)C#N)c2)cc1-c1cnc(OC2COC2)c(C#N)c1 [Example 94, N-(5′-cyano-2-methyl-6′-(oxetan-3-yloxy)-[3,3′-bipyridin]-5-yl)-2-(2-cyanopropan-2-yl)isonicotinamide]	5.98	23.6
Cc1ncc(NC(=O)c2ccnc(C(F)(F)F)c2)cc1-c1cnc(OC2COC2)c(C#N)c1 [Example 95, N-(5′-cyano-2-methyl-6′-(oxetan-3-yloxy)-[3,3′-bipyridin]-5-yl)-2-(trifluoromethyl) isonicotinamide]	2.34	12.8
Cc1ncc(NC(=O)c2ccnc(C(C)(C)C#N)c2)cc1-c1cnc(OC(C)C)c(C#N)c1 [Example 96, N-(5′-cyano-6′-isopropoxy-2-methyl-[3,3′-bipyridin]-5-yl)-2-(2-cyanopropan-2-yl)isonicotinamide]	3.53	11.9
Cc1ncc(NC(=O)c2ccnc(C(C)(C)C#N)c2)cc1-c1cnc(OCCO)c(C#N)c1 [Example 98, N-(5′-cyano-6′-(2-hydroxyethoxy)-2-methyl-[3,3′-bipyridin]-5-yl)-2-(2-cyanopropan-2-yl)isonicotinamide]	9.21	74.3
Cc1ncc(NC(=O)c2cccc(C(F)(F)F)c2)cc1-c1cnc(OCCO)c(C#N)c1 [Example 99, N-(5′-cyano-6′-(2-hydroxyethoxy)-2-methyl-[3,3′-bipyridin]-5-yl)-3-(trifluoromethyl) benzamide]	0.712	5.8
Cc1ncc(NC(=O)c2ccnc(C(F)(F)F)c2)cc1-c1cnc(-c2ccn(C)c(=O)c2)c(C#N)c1 [Example 102, N-(5′-cyano-1″,2-dimethyl-2″-oxo-1″,2″-dihydro-[3,3′:6′,4″- terpyridin]-5-yl)-2-(trifluoromethyl) isonicotinamide]	0.66	3.14
Cc1ncc(NC(=O)c2ccnc(C(C)(C)C#N)c2)cc1-c1cnc(-c2ccn(C)c(=O)c2)c(C#N)c1 [Example 103, N-(5′-cyano-1″,2-dimethyl-2″-oxo-1″,2″-dihydro-[3,3′:6′,4″- terpyridin]-5-yl)-2-(2-cyanopropan-2-yl)isonicotinamide]	4.21	22.5
Cc1ncc(NC(=O)c2ccnc(C(F)(F)F)c2)cc1-c1cnc(-c2cccnc2)c(C#N)c1 [Example 104, N-(3′-cyano-2″- methyl-[3,2′:5′,3″- terpyridin]-5″-yl)-2-(trifluoromethyl) isonicotinamide]	0.594	3.16
Cc1ncc(NC(=O)c2ccnc(C(C)(C)C#N)c2)cc1-c1cnc(-c2ccc(=O)n(C)c2)c(C#N)c1 [Example 105, N-(3′-cyano-1,2″- dimethyl-6-oxo-1,6-dihydro-[3,2′:5′,3″- terpyridin]-5″-yl)-2-(2-cyanopropan-2-yl)isonicotinamide]	2.75	18
Cc1ncc(NC(=O)c2cccc(C(F)(F)F)c2)cc1-c1cnc(-c2ccncc2)c(C#N)c1 [Example 106, N-(5′-cyano-2-methyl-[3,3′:6′,4″- terpyridin]-5-yl)-3-(trifluoromethyl) benzamide]	0.391	2.19
Cc1ncc(NC(=O)c2ccnc(C(C)(C)C#N)c2)cc1-c1cnc(-c2ccncc2)c(C#N)c1 [Example 107]	2.16	9.07
Cc1ncc(NC(=O)c2ccnc(C(C)(C)C#N)c2)cc1-c1cnc(-c2cccnc2)c(C#N)c1 [Example 108, N-(3′-cyano-2″- methyl-[3,2′:5′,3″- terpyridin]-5″-yl)-2-(2-cyanopropan-2-yl)isonicotinamide]	2.66	13.7
Cc1ncc(NC(=O)c2ccnc(C(C)(C)C#N)c2)cc1-c1cnc(-c2ccn(C)n2)c(C#N)c1 [Example 109, N-(5′-cyano-2-methyl-6′-(1-methyl-1H-pyrazol-3-yl)-[3,3′-bipyridin]-5-yl)-2-(2-cyanopropan-2-yl)isonicotinamide]	2.74	20
Cc1ncc(NC(=O)c2ccnc(C(F)(F)F)c2)cc1-c1cnc(-c2cn(C)nc2C)c(C#N)c1 [Example 111, N-(5′-cyano-6′-(1,3-dimethyl-1H-pyrazol-4-yl)-2-methyl-[3,3′-bipyridin]-5-yl)-2-(trifluoromethyl) isonicotinamide]	0.397	1.46
Cc1ncc(NC(=O)c2ccnc(C(F)(F)F)c2)cc1-c1cnc(-c2c(C)nn(C)c2C)c(C#N)c1 [Example 112, N-(5′-cyano-2-methyl-6′-(1,3,5-trimethyl-1H-pyrazol-4-yl)-[3,3′-bipyridin]-5-yl)-2-(trifluoromethyl) isonicotinamide]	3.51	17.6
Cc1ncc(NC(=O)c2ccnc(C(C)(C)C#N)c2)cc1-c1cnc(-c2cn(C)nc2C)c(C#N)c1 [Example 113, N-(5′-cyano-6′-(1,3-dimethyl-1H-pyrazol-4-yl)-2-methyl-[3,3′-bipyridin]-5-yl)-2-(2-cyanopropan-2-yl)isonicotinamide]	1.79	6.26
Cc1ncc(NC(=O)c2ccnc(C(C)(C)C#N)c2)cc1-c1cnc(-c2c(C)nn(C)c2C)c(C#N)c1 [Example 114, N-(5′-cyano-2-methyl-6′-(1,3,5-trimethyl-1H-pyrazol-4-yl)-[3,3′-bipyridin]-5-yl)-2-(2-cyanopropan-2-yl)isonicotinainide]	8.18	32.1
Cc1ncc(NC(=O)c2ccnc(C(C)(C)C#N)c2)cc1-c1cnc(-c2ccnnc2)c(C#N)c1 [Example 115]	11.5	70.6
Cc1ccc(NC(=O)c2cccc(C(F)(F)F)c2)cc1-c1cnc(-n2ccc(=O)cc2)c(C#N)c1 [Example 118, N-(3-(3′-cyano-4-oxo-4H-[1,2′-bipyridin]-5′-yl)-4-methylphenyl)-3-(trifluoromethyl) benzamide]	0.768	5.57
